The values that follow come from patent US20260184663A1, “INDENE COMPOUNDS, PHARMACEUTICAL COMPOSITIONS THEREOF, AND THEIR THERAPEUTIC APPLICATIONS” (NucMito Pharmaceuticals co. Ltd., priority 2022, published 2026).

In one assay the test system is alpha-smooth muscle actin (α-SMA). The assay is described as follows: Inhibition of TGF-β induced expression of alpha-smooth muscle actin (α-SMA) in CFSC cells (western blot). The format is cell-based. The settings on record: compound at 10 μM, TGF-β (10 ng/mL), 24 hours, band intensity vs TGF-β only. In outline:
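CFSC hepatic stellate cells in serum-free DMEM treated 24 h at 37 °C with compound at 10 μM plus TGF-β (10 ng/mL). α-SMA measured by Western blot with β-actin, ECL detection, densitometry. Percent inhibition is decrease in band intensity versus TGF-β-only cells.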
On to `CC1=C(CC(=O)O)c2cc(C)ccc2/C1=C\c1ccc(COc2ccccc2)cc1` [B4, (Z)-2-(2,5-Dimethyl-1-(4-(phenoxymethyl)benzylidene)-1H-inden-3-yl)acetic acid], for which the inhibition at 10 µM is less than 30%.

For the next assay, the system named is MDA-MB-231 (breast cancer). The assay is described as follows: Antiproliferative activity (CCK-8 cell viability), MDA-MB-231. The format is cell-based. The settings on record: Homo sapiens, Compound concentration: 3.3 μM, 72 h, read-out: Antiproliferative activity in cancerous cells, MDA-MB-231 (inhibition of cell growth). In outline: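 Growth inhibition of human MDA-MB-231 breast cancer cells was assessed with a Cell Counting Kit-8. Cells cultured in DMEM plus 10% FBS were seeded at 2,000-5,000 cells/well, treated after attachment, and kept 72 h at 37° C. CCK-8 solution (10 μL) was added for 4 h, and absorbance at 450 nm was compared with DMSO-treated controls.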
As for `CC1=C(CC(=O)O)c2cc(C)ccc2/C1=C\c1ccc(COc2ccccc2)cc1` [B4, (Z)-2-(2,5-Dimethyl-1-(4-(phenoxymethyl)benzylidene)-1H-inden-3-yl)acetic acid], the inhibition at 3.3 µM fell in the range of 30 to 50%.

Still in this assay, the particulars now being: Homo sapiens, Compound concentration: 10 μM, 72 h, read-out: Antiproliferative activity in cancerous cells, MDA-MB-231 (inhibition of cell growth).
Consider `CC1=C(CC(=O)O)c2cc(C)ccc2/C1=C\c1ccc(COc2ccccc2)cc1` [B4, (Z)-2-(2,5-Dimethyl-1-(4-(phenoxymethyl)benzylidene)-1H-inden-3-yl)acetic acid], for which the inhibition at 10 µM lay in the range of 30 to 50%.

Staying with this assay, now noted: Homo sapiens, Compound concentration: 30 μM, 72 h, read-out: Antiproliferative activity in cancerous cells, MDA-MB-231.
Turning to `CC1=C(CC(=O)O)c2cc(C)ccc2/C1=C\c1ccc(COc2ccccc2)cc1` [B4, (Z)-2-(2,5-Dimethyl-1-(4-(phenoxymethyl)benzylidene)-1H-inden-3-yl)acetic acid], the inhibition at 30 µM was less than 30%.

A further assay relates to HepG2 (liver cancer). In words: Antiproliferative activity (CCK-8 cell viability), HepG2. The format is cell-based. The following applies: Homo sapiens, Compound concentration: 3.3 μM, 72 h, read-out: Antiproliferative activity in cancerous cells, HepG2 (inhibition of cell growth). In outline: (§1)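 Growth inhibition graded in bands from percent viability against DMSO vehicle, read as CCK-8 absorbance at 450 nm. Compound tested at 3.3, 10 or 30 μM for 72 h, 37 °C; media contained 10% FBS: DMEM for HepG2/SW480, MEM for HeLa, F-12K for A549.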
As to `CC1=C(CC(=O)O)c2cc(C)ccc2/C1=C\c1ccc(COc2ccccc2)cc1` [B4, (Z)-2-(2,5-Dimethyl-1-(4-(phenoxymethyl)benzylidene)-1H-inden-3-yl)acetic acid], the inhibition at 3.3 µM lay in the range of 30 to 50%.

The assay is the same for the next values; noted with them: Homo sapiens, Compound concentration: 10 μM, 72 h, read-out: Antiproliferative activity in cancerous cells, HepG2 (inhibition of cell growth).
`CC1=C(CC(=O)O)c2cc(C)ccc2/C1=C\c1ccc(COc2ccccc2)cc1` [B4, (Z)-2-(2,5-Dimethyl-1-(4-(phenoxymethyl)benzylidene)-1H-inden-3-yl)acetic acid]: the inhibition at 10 µM was less than 30%.

The same assay, now with this note: Homo sapiens, Compound concentration: 30 μM, 72 h, read-out: Antiproliferative activity in cancerous cells, HepG2.
Regarding `CC1=C(CC(=O)O)c2cc(C)ccc2/C1=C\c1ccc(COc2ccccc2)cc1` [B4, (Z)-2-(2,5-Dimethyl-1-(4-(phenoxymethyl)benzylidene)-1H-inden-3-yl)acetic acid], the inhibition at 30 µM is less than 30%.

The next assay concerns SW480 (colon cancer). The assay is described as follows: Antiproliferative activity (CCK-8 cell viability), SW480. The format is cell-based. The settings on record: Homo sapiens, Compound concentration: 3.3 μM, 72 h, read-out: Antiproliferative activity in cancerous cells, SW480 (inhibition of cell growth). The method in brief: as §1
For `CC1=C(CC(=O)O)c2cc(C)ccc2/C1=C\c1ccc(COc2ccccc2)cc1` [B4, (Z)-2-(2,5-Dimethyl-1-(4-(phenoxymethyl)benzylidene)-1H-inden-3-yl)acetic acid], the inhibition at 3.3 µM is less than 30%.

Staying with this assay, now noted: Homo sapiens, Compound concentration: 10 μM, 72 h, read-out: Antiproliferative activity in cancerous cells, SW480 (inhibition of cell growth).
For the compound `CC1=C(CC(=O)O)c2cc(C)ccc2/C1=C\c1ccc(COc2ccccc2)cc1` [B4, (Z)-2-(2,5-Dimethyl-1-(4-(phenoxymethyl)benzylidene)-1H-inden-3-yl)acetic acid], the inhibition at 10 µM is 30 to 50%.

For the next assay, the system named is B16F10 (malignant melanoma). In words: Antiproliferative activity (CCK-8 cell viability), B16F10. The settings on record: Mus musculus, B16-F10, Compound concentration: 3.3 μM, 72 h, read-out: Antiproliferative activity in cancerous cells, B16F10 (inhibition of cell growth). The assay is classed as cell-based. In outline: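 Cell growth inhibition was measured in B16F10 malignant melanoma cells with a Cell Counting Kit-8 viability assay. Cells were maintained in DMEM plus 10% fetal bovine serum, seeded at 2,000-5,000 cells/well in 96-well plates, and treated for 72 h at 37° C. Viability was expressed relative to DMSO-treated vehicle control wells.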
Regarding `CC1=C(CC(=O)O)c2cc(C)ccc2/C1=C\c1ccc(COc2ccccc2)cc1` [B4, (Z)-2-(2,5-Dimethyl-1-(4-(phenoxymethyl)benzylidene)-1H-inden-3-yl)acetic acid], the inhibition at 3.3 µM is no less than 50%.

Still in this assay, the particulars now being: Mus musculus, B16-F10, Compound concentration: 10 μM, 72 h, read-out: Antiproliferative activity in cancerous cells, B16F10 (inhibition of cell growth).
`CC1=C(CC(=O)O)c2cc(C)ccc2/C1=C\c1ccc(COc2ccccc2)cc1` [B4, (Z)-2-(2,5-Dimethyl-1-(4-(phenoxymethyl)benzylidene)-1H-inden-3-yl)acetic acid]: the inhibition at 10 µM was no less than 50%.

The subject of another assay is A431 (epidermoid carcinoma). In words: Antiproliferative activity (CCK-8 cell viability), A431. The format is cell-based. The settings on record: Homo sapiens, A-431, Compound concentration: 3.3 μM, 72 h, read-out: Antiproliferative activity in cancerous cells, A431 (inhibition of cell growth). In outline: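 This growth inhibition assay used A431 cells maintained in Dulbecco's modified Eagle's medium plus 10% fetal bovine serum. Cells were seeded in 96-well plates, treated with compound for 72 h at 37° C., and then given 10 μL CCK-8 solution. After a further 4 h, absorbance was read at 450 nm.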
`CC1=C(CC(=O)O)c2cc(C)ccc2/C1=C\c1ccc(COc2ccccc2)cc1` [B4, (Z)-2-(2,5-Dimethyl-1-(4-(phenoxymethyl)benzylidene)-1H-inden-3-yl)acetic acid]: the inhibition at 3.3 µM is no less than 50%.

Still in this assay, the particulars now being: Homo sapiens, A-431, Compound concentration: 10 μM, 72 h, read-out: Antiproliferative activity in cancerous cells, A431 (inhibition of cell growth).
Take `CC1=C(CC(=O)O)c2cc(C)ccc2/C1=C\c1ccc(COc2ccccc2)cc1` [B4, (Z)-2-(2,5-Dimethyl-1-(4-(phenoxymethyl)benzylidene)-1H-inden-3-yl)acetic acid]: the inhibition at 10 µM was less than 30%.

In the next assay the test system is A549 (lung adenocarcinoma). The assay is described as follows: Antiproliferative activity (CCK-8 cell viability), A549. The assay is classed as cell-based. The following applies: Homo sapiens, Compound concentration: 3.3 μM, 72 h, read-out: Antiproliferative activity in cancerous cells, A549 (inhibition of cell growth). The method in brief: as §1
Regarding `CC1=C(CC(=O)O)c2cc(C)ccc2/C1=C\c1ccc(COc2ccccc2)cc1` [B4, (Z)-2-(2,5-Dimethyl-1-(4-(phenoxymethyl)benzylidene)-1H-inden-3-yl)acetic acid], the inhibition at 3.3 µM lay within 30 to 50%.

The assay is the same for the next values; noted with them: Homo sapiens, Compound concentration: 10 μM, 72 h, read-out: Antiproliferative activity in cancerous cells, A549 (inhibition of cell growth).
In the case of `CC1=C(CC(=O)O)c2cc(C)ccc2/C1=C\c1ccc(COc2ccccc2)cc1` [B4, (Z)-2-(2,5-Dimethyl-1-(4-(phenoxymethyl)benzylidene)-1H-inden-3-yl)acetic acid], the inhibition at 10 µM lay in the range of 30 to 50%.

The same assay, now with this note: Homo sapiens, Compound concentration: 30 μM, 72 h, read-out: Antiproliferative activity in cancerous cells, A549.
In the case of `CC1=C(CC(=O)O)c2cc(C)ccc2/C1=C\c1ccc(COc2ccccc2)cc1` [B4, (Z)-2-(2,5-Dimethyl-1-(4-(phenoxymethyl)benzylidene)-1H-inden-3-yl)acetic acid], the inhibition at 30 µM lay within 30 to 50%.

The test system of another assay is HeLa (cervical cancer). In words: Antiproliferative activity (CCK-8 cell viability), HeLa. The format is cell-based. The settings on record: Homo sapiens, Compound concentration: 3.3 μM, 72 h, read-out: Antiproliferative activity in cancerous cells, HELA (inhibition of cell growth). In outline:
as §1
Regarding `CC1=C(CC(=O)O)c2cc(C)ccc2/C1=C\c1ccc(COc2ccccc2)cc1` [B4, (Z)-2-(2,5-Dimethyl-1-(4-(phenoxymethyl)benzylidene)-1H-inden-3-yl)acetic acid], the inhibition at 3.3 µM was less than 30%.

Still in this assay, the particulars now being: Homo sapiens, Compound concentration: 10 μM, 72 h, read-out: Antiproliferative activity in cancerous cells, HELA (inhibition of cell growth).
For `CC1=C(CC(=O)O)c2cc(C)ccc2/C1=C\c1ccc(COc2ccccc2)cc1` [B4, (Z)-2-(2,5-Dimethyl-1-(4-(phenoxymethyl)benzylidene)-1H-inden-3-yl)acetic acid], the inhibition at 10 µM lay in the range of 30 to 50%.

Still in this assay, the particulars now being: Homo sapiens, Compound concentration: 30 μM, 72 h, read-out: Antiproliferative activity in cancerous cells, HELA.
Turning to `CC1=C(CC(=O)O)c2cc(C)ccc2/C1=C\c1ccc(COc2ccccc2)cc1` [B4, (Z)-2-(2,5-Dimethyl-1-(4-(phenoxymethyl)benzylidene)-1H-inden-3-yl)acetic acid], the inhibition at 30 µM was 30 to 50%.
